Test results taken from ChEMBL document CHEMBL3046568, “Synthesis, antimicrobial and DNA cleavage studies of some 4-aryloxymethylcoumarins obtained by reaction of 4-bromomethylcoumarins with bidentate nucleophiles” (2012).
Converted amounts (≈) assume the structure as drawn. The source made the active and inactive calls. The calls are words filed in the database; no cut-off is given here.

How the values were obtained:
[1] = system: Penicillium chrysogenum; experiment: Antifungal activity against Penicillium chrysogenum after 3 to 4 days by serial dilution method; assay type: functional; settings: for MIC: Penicillium chrysogenum
[2] = system: Aspergillus fumigatus; experiment: Antifungal activity against Aspergillus fumigatus after 3 to 4 days by serial dilution method; assay type: functional; settings: for MIC: Aspergillus fumigatus
[3] = system: Escherichia coli; experiment: Induction of Escherichia coli MTCC 1089 DNA cleavage at 25 ug after 2 hr by agarose gel electrophoresis
[4] = system: Pseudomonas aeruginosa; experiment: Antibacterial activity against Pseudomonas aeruginosa MTCC 1034 after 24 hr by disk diffusion method; assay type: functional; settings: for MIC: Pseudomonas aeruginosa, MTCC 1034, 24 h
[5] = system: Mucor fuscus; experiment: Antifungal activity against Mucor fuscus after 3 to 4 days by serial dilution method; assay type: functional; settings: for MIC: Mucor fuscus
[6] = system: Enterococcus faecalis; experiment: Antibacterial activity against Enterococcus faecalis MTCC 3382 after 24 hr by disk diffusion method; assay type: functional; settings: for MIC: Enterococcus faecalis, MTCC 3382, 24 h
[7] = system: Escherichia coli; experiment: Antibacterial activity against Escherichia coli MTCC 1089 after 24 hr by disk diffusion method; assay type: functional; settings: for MIC: Escherichia coli, MTCC 1089, 24 h
[8] = system: Bacillus subtilis; experiment: Antibacterial activity against Bacillus subtilis MTCC 297 after 24 hr by disk diffusion method; assay type: functional; settings: for MIC: Bacillus subtilis, MTCC 297, 24 h
[9] = system: Aspergillus niger; experiment: Induction of Aspergillus niger DNA cleavage at 50 ug after 2 hr by agarose gel electrophoresis
[10] = system: Candida albicans; experiment: Antifungal activity against Candida albicans after 3 to 4 days by serial dilution method; assay type: functional; settings: for MIC: Candida albicans
[11] = system: Staphylococcus aureus; experiment: Antibacterial activity against Staphylococcus aureus MTCC 3160 after 24 hr by disk diffusion method; assay type: functional; settings: for MIC: Staphylococcus aureus, MTCC 3160, 24 h
[12] = system: Staphylococcus aureus; experiment: Induction of Staphylococcus aureus MTCC 3160 DNA cleavage at 50 ug after 2 hr by agarose gel electrophoresis
[13] = system: Klebsiella pneumoniae; experiment: Antibacterial activity against Klebsiella pneumoniae MTCC 3384 after 24 hr by disk diffusion method; assay type: functional; settings: for MIC: Klebsiella pneumoniae, MTCC 3384, 24 h
[14] = system: Fusarium oxysporum; experiment: Antifungal activity against Fusarium oxysporum after 3 to 4 days by serial dilution method; assay type: functional; settings: for MIC: Fusarium oxysporum
[15] = system: Aspergillus niger; experiment: Antifungal activity against Aspergillus niger after 3 to 4 days by serial dilution method; assay type: functional; settings: for MIC: Aspergillus niger
[16] = system: Escherichia coli; experiment: Induction of Escherichia coli MTCC 1089 DNA cleavage at 50 ug after 2 hr by agarose gel electrophoresis

Compound | inhibition zone (IZ) [1] [mm] | MIC [1] [µg/mL] | inhibition zone (IZ) [2] [mm] | MIC [2] [µg/mL] | Activity [3] | inhibition zone (IZ) [4] [mm] | MIC [4] [µg/mL] | inhibition zone (IZ) [5] [mm] | MIC [5] [µg/mL] | inhibition zone (IZ) [6] [mm] | MIC [6] [µg/mL] | inhibition zone (IZ) [7] [mm] | MIC [7] [µg/mL] | inhibition zone (IZ) [8] [mm] | MIC [8] [µg/mL] | Activity [9] | inhibition zone (IZ) [10] [mm] | MIC [10] [µg/mL] | inhibition zone (IZ) [11] [mm] | MIC [11] [µg/mL] | further results
CCN(CC)c1cccc(OCc2cc(=O)oc3ccc(OC)cc23)c1 | 23 | 6.25 (≈ 17.7 µM) | 19 | 6.25 (≈ 17.7 µM) | Active | 25 | 6.25 (≈ 17.7 µM) | 19 | 6.25 (≈ 17.7 µM) | 20 | 6.25 (≈ 17.7 µM) | 17 | 12.5 (≈ 35.4 µM) | 18 | 6.25 (≈ 17.7 µM) | Active | 17 | 6.25 (≈ 17.7 µM) | 20 | 6.25 (≈ 17.7 µM) | Activity [12]: Active; inhibition zone (IZ) [13]: 20 mm; MIC [13]: 6.25 µg/mL (≈ 17.7 µM); inhibition zone (IZ) [14]: 15 mm; inhibition zone (IZ) [15]: 20 mm; MIC [15]: 6.25 µg/mL (≈ 17.7 µM); Activity [16]: Active
COc1ccc2oc(=O)cc(COc3cccc(OCc4cc(=O)oc5ccc(OC)cc45)c3)c2c1 | 17 | 12.5 (≈ 25.7 µM) | 18 | 12.5 (≈ 25.7 µM) | Active | 24 | 6.25 (≈ 12.8 µM) | 20 | 6.25 (≈ 12.8 µM) | 21 | 6.25 (≈ 12.8 µM) | 17 | 12.5 (≈ 25.7 µM) | 18 | 6.25 (≈ 12.8 µM) | Active | 17 | 6.25 (≈ 12.8 µM) | 19 | 6.25 (≈ 12.8 µM) | Activity [12]: Active; inhibition zone (IZ) [13]: 20 mm; MIC [13]: 6.25 µg/mL (≈ 12.8 µM); inhibition zone (IZ) [14]: 15 mm; MIC [14]: 12.5 µg/mL (≈ 25.7 µM); inhibition zone (IZ) [15]: 18 mm; MIC [15]: 12.5 µg/mL (≈ 25.7 µM); Activity [16]: Active
COc1ccc2oc(=O)cc(COc3cccc(NC(C)=O)c3)c2c1 | 20 | 6.25 (≈ 18.4 µM) | 21 | 6.25 (≈ 18.4 µM) | Active | 25 | 6.25 (≈ 18.4 µM) | 21 | 6.25 (≈ 18.4 µM) | 20 | 6.25 (≈ 18.4 µM) | 17 | 12.5 (≈ 36.8 µM) | 19 | 6.25 (≈ 18.4 µM) | Active | 19 | 6.25 (≈ 18.4 µM) | 19 | 6.25 (≈ 18.4 µM) | Activity [12]: Active; inhibition zone (IZ) [13]: 21 mm; MIC [13]: 6.25 µg/mL (≈ 18.4 µM); inhibition zone (IZ) [14]: 16 mm; MIC [14]: 12.5 µg/mL (≈ 36.8 µM); inhibition zone (IZ) [15]: 21 mm; MIC [15]: 6.25 µg/mL (≈ 18.4 µM); Activity [16]: Active
COc1ccc2oc(=O)cc(COc3cccc(O)c3)c2c1 | 20 | 6.25 (≈ 21 µM) | 17 | 12.5 (≈ 41.9 µM) | Active | 25 | 6.25 (≈ 21 µM) | 19 | 6.25 (≈ 21 µM) | 21 | 6.25 (≈ 21 µM) | 18 | 12.5 (≈ 41.9 µM) | 18 | 6.25 (≈ 21 µM) | Active | 19 | 6.25 (≈ 21 µM) | 20 | 6.25 (≈ 21 µM) | Activity [12]: Active; inhibition zone (IZ) [13]: 21 mm; MIC [13]: 6.25 µg/mL (≈ 21 µM); inhibition zone (IZ) [14]: 16 mm; MIC [14]: 12.5 µg/mL (≈ 41.9 µM); inhibition zone (IZ) [15]: 20 mm; MIC [15]: 6.25 µg/mL (≈ 21 µM); Activity [16]: Active
